According to patent publication US9694016B2 (Novartis AG, priority 2013, dated 2017):

biological target: b-Raf (V600E) (Homo sapiens (Human), UniProt P15056, V600E); conditions: read-out: b-Raf IC-50; AlphaScreen, 60 min pre-incubation, 3 hours reaction
Sequence (P15056 whole entry V600E): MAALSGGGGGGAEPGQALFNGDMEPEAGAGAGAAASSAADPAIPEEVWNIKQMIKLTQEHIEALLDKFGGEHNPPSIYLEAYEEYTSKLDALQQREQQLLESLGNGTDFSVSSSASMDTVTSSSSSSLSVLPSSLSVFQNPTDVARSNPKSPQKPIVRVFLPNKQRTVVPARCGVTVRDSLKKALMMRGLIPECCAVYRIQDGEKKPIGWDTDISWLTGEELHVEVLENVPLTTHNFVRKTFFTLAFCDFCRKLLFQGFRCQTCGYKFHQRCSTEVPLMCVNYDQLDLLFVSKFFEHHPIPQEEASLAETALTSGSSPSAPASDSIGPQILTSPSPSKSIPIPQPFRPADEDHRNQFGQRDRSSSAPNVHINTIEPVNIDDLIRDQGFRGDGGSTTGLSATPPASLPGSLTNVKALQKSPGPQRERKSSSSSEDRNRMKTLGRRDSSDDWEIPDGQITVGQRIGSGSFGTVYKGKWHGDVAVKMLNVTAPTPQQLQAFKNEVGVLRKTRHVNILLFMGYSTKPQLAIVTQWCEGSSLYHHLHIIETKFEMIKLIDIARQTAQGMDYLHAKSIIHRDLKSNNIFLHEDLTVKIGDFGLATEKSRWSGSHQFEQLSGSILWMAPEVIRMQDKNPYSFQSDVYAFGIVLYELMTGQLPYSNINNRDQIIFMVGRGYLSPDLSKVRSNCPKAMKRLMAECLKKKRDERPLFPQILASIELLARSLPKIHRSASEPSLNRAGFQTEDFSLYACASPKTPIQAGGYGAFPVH

Structure (SMILES) | IC50 [nM]
Cc1ccc(NC(=O)c2ccnc(S(C)(=O)=O)c2)cc1-c1cc(N2CCOCC2)c(OC2CCOCC2)nn1 [Example 582, N-(4-methyl-3-(5-morpholino-6-((tetrahydro-2H-pyran-4-yl)oxy)pyridazin-3-yl)phenyl)-2-(methylsulfonyl)isonicotinamide] | 0.8
Cc1ccc(NC(=O)c2cccc(C(F)(F)F)c2)cc1-c1nc(N2CCOCC2)c2ncsc2n1 [Example 839, N-(4-methyl-3-(7-morpholinothiazolo[5,4-d]pyrimidin-5-yl)phenyl)-3-(trifluoromethyl)benzamide] | 0.9

Results, then the molecule that gave them:

IC50 [nM] | Structure (SMILES)
0.4 | Cc1ccc(NC(=O)c2ccnc(C3CC3)c2)cc1-c1cc(N2CCOCC2)n(C)c(=O)c1 [Example 477, 2-cyclopropyl-N-(4-methyl-3-(1-methyl-6-morpholino-2-oxo-1,2-dihydropyridin-4-yl)phenyl)isonicotinamide]
0.8 | CCOc1nnc(-c2cc(NC(=O)c3ccnc(C(C)(C)C#N)c3)ccc2C)cc1N1CCOCC1 [Example 573, 2-(2-cyanopropan-2-yl)-N-(3-(6-ethoxy-5-morpholinopyridazin-3-yl)-4-methylphenyl)isonicotinamide]
20 | CCn1cc(C(=O)Nc2cnc(C)c(-c3cc(N4CCOCC4)n(C)c(=O)c3)c2)cc(C(F)(F)F)c1=O [Example 502, N-(1′,2-dimethyl-6′-morpholino-2′-oxo-1′,2′-dihydro-[3,4′-bipyridin]-5-yl)-1-ethyl-6-oxo-5-(trifluoromethyl)-1,6-dihydropyridine-3-carboxamide]

same assay, conditions: read-out: b-Raf IC-50; AlphaScreen, 60 min pre-incubation, reaction 3 hours at room temperature

IC50 [nM] | Structure (SMILES)
0.72 | Cc1ccc(NC(=O)c2ccnc(C3CC3)c2)cc1-c1cc(N2CCOCC2)nc(N2CC(O)C2)c1 [Example 1068, 2-cyclopropyl-N-(3-(2-(3-hydroxyazetidin-1-yl)-6-morpholinopyridin-4-yl)-4-methylphenyl)isonicotinamide]
2.7 | Cc1ccc(NC(=O)c2ccnc(C(C)(C)C#N)c2)cc1-c1cc(N2CCOCC2)c(S(C)(=O)=O)nn1 [Example 931, 2-(2-cyanopropan-2-yl)-N-(4-methyl-3-(6-(methylsulfonyl)-5-morpholinopyridazin-3-yl)phenyl)isonicotinamide]
7.65 | Cc1ncc(NC(=O)c2cc(C(C)(C)C#N)ccn2)cc1-c1cnc(OC(F)F)c(N2CCOCC2)c1 [Example 981, 4-(2-cyanopropan-2-yl)-N-(6′-(difluoromethoxy)-2-methyl-5′-morpholino-[3,3′-bipyridin]-5-yl)picolinamide]
1.31 | Cc1ccc(NC(=O)c2ccnc(C(C)C)c2)cc1-c1cc(N2CCOCC2)nc(N2CCOCC2)c1 [Example 1117, N-(3-(2,6-dimorpholinopyridin-4-yl)-4-methylphenyl)-2-isopropylisonicotinamide]
5.5 | Cc1ccc(NC(=O)c2ccnc(C(F)F)c2)cc1-c1nc2c(c(N3CCOCC3)n1)S(=O)(=O)CC2 [Example 856, 2-(difluoromethyl)-N-(4-methyl-3-(4-morpholino-5,5-dioxido-6,7-dihydrothieno[3,2-d]pyrimidin-2-yl)phenyl)isonicotinamide]

same assay, conditions: read-out: b-Raf IC-50; Table 2; AlphaScreen, 3 hours reaction

IC50 [nM] | Structure (SMILES)
15.3 | Cc1ncc(NC(=O)c2ccnc(C(F)F)c2)cc1-c1cc(N2CCOCC2)c(=O)n(C)c1 [Example 392, 2-(difluoromethyl)-N-(1′,2-dimethyl-5′-morpholino-6′-oxo-1′,6′-dihydro-[3,3′-bipyridin]-5-yl)isonicotinamide]
9.2 | Cc1ncc(NC(=O)c2cccc(C(F)(F)F)c2)cc1-c1cnc(OC2CCOCC2)c(N2CCOCC2=O)c1 [Example 309, N-(2-methyl-5′-(3-oxomorpholino)-6′-((tetrahydro-2H-pyran-4-yl)oxy)-[3,3′-bipyridin]-5-yl)-3-(trifluoromethyl)benzamide]
3 | Cc1ncc(NC(=O)c2cccc(C(F)(F)F)c2)cc1-c1cnc(OCCO)c(N2CCOCC2)c1 [Example 145, N-(6′-(2-hydroxyethoxy)-2-methyl-5′-morpholino-[3,3′-bipyridin]-5-yl)-3-(trifluoromethyl)benzamide]
